From patent US9932352B2, “Compounds for the treatment of ischemia-reperfusion-related diseases” (MINERVA PATENTS S.A., priority 2012, dated 2018)

Experiments:
[1] = biological target: T1, TrkA receptor (Rattus norvegicus, UniProt P35739); assay: Autophosphorylation of the TrkA receptor in PC12 cells (Western blotting); type: cell-based; conditions: serum-free 6 hours, NGF 10 ng/ml or compounds 10 μm, 20 minutes, WB, ratio to total TrkA
T1 construct: Autophosphorylation of the TrkA receptor on PC12 cells when incubated with NGF or with a mimetic; endogenous in cells; host or cells: PC12 rat pheochromocytoma cells
Protocol: Cells of the continuous PC12 pheochromocytoma rat line were cultured at a concentration of 4×10^5/ml in RPMI 1640 medium, supplemented with 5% glutamine, antibiotics, and in the absence of serum, in 24-well plates for 6 hours. Subsequently, NGF at a final concentration of 10 ng/ml or alternatively the compounds of formula (I), at the final concentration of 10 μm, were added to these cultures. After 20 minutes, the cells were thus lysed in RIPA buffer (20 mM Tris-HCl, pH 7.5, 150 mM NaCl, 1 mM Na2 EDTA, 1 mM EGTA, 1% NP-40, 1% sodium deoxycholate, 25 mM sodium pyrophosphate, 1 mMβ-glycerophosphate, 1 mM Na3VO4, 1 μg/ml leupeptin) for biochemical analysis by means of Western blotting (WB) technique, using specific antibodies for the phosphorylated form of the tyrosines 490, 674/675 or 785.
The graphs show the phosphorylation values of the indicated tyrosines (Y490, Y674/675, Y785), expressed as the ratio of the intensities of the bands observed in WB, developed with the respective anti-phosphotyrosine antibodies, to the band relating to the total TrkA protein. It is clear that the mimetics very strongly induce the phosphorylation of Y490 and much less that of the other tyrosines.

[2] = test system: MKP-1 protein; assay: Induction of MKP-1 protein expression in PC12 cells (Western blotting); type: cell-based, rat; conditions: serum-free, NGF 10 ng/ml or compounds 10 μm, 30 minutes, WB densitometry
Protocol: (§1) PC12 cells were cultured in the absence of serum, exactly as described above in example 5, and then treated for 30 minutes with NGF, at the final concentration of 10 ng/ml, or alternatively with the compounds of formula (I), at the final concentration of 10 μm; subsequently, the cells were lysed, and analysed by WB, using antibodies specific for the MKP-1 protein.

[3] = test system: p38 MAPK protein; assay: Dephosphorylation of p38 MAPK protein in serum-deprived PC12 cells (Western blotting); type: cell-based, rat; conditions: serum deprivation 6 hours, NGF 10 ng/ml or compounds 10 μm, 30 minutes, WB
Protocol: as §1, with “and” for “and then”, “I,” for “(I),”, “μm;” for “μm; subsequently,”, “subsequently lysed” for “lysed,”, “phosphorylated form of the enzyme.” for “MKP-1 protein.”
A homogeneity control of protein load on gel, normalisation with β-actin is reported. (FIG. 3).

[4] = test system: Murine cardiomyocytes; assay: Apoptosis induced by ROS after hypoxia/reperfusion, Annexin-V flow cytometry; type: cell-based; conditions: cells cultured in hypoxia, end of reperfusion period, vs controls

T1 sequence (P35739 33-799): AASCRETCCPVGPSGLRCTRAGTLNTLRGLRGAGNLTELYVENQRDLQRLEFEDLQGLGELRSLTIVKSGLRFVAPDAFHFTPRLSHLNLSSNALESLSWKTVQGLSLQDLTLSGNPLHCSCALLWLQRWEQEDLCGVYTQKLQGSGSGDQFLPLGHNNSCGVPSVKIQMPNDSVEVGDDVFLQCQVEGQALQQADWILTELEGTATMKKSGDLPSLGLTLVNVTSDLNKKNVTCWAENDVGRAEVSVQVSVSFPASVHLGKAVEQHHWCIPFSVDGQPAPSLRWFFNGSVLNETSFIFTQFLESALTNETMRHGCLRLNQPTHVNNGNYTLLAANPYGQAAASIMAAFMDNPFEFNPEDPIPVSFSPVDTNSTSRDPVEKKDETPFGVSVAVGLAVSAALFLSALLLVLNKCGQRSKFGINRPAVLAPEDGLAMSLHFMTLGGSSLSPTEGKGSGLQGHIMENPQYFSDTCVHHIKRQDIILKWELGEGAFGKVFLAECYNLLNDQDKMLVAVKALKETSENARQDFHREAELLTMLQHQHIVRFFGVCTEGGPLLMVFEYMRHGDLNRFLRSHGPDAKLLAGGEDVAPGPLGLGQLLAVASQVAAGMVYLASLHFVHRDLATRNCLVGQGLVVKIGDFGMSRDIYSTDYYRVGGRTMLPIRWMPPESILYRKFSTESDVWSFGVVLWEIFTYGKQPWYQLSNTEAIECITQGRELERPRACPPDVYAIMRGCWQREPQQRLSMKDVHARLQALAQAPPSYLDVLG

Substance: NGF: recombinant human NGF, the native neurotrophin used as comparator at 10 ng/ml
- phosphorylation of TrkA tyrosines 490, 674/675, 785 [1]: invariably induced the phosphorylation of all tyrosines
- MKP-1 protein levels (ratio MKP1 band to β-actin) [2]: significantly higher than the control
- dephosphorylation of p38 MAPK [3]: marked dephosphorylation of p38 MAPK
- percentage of apoptotic cells (Annexin-V positive) [4]: much lower percentage of apoptotic cells than the controls
